According to PubChem BioAssay AID2060611 (Molecular Pharmacology Branch, DTP, NCI, 2025):
Several values for one entry are separate records, joined by “and”; a condition that tells them apart may be missing. Equal entries are not always repeated. Each block holds one compound with its values, some of them ahead of it.

Test system: 628569-122-R-J1-PDC complex spheroid viability
Assay: Anticancer human tumor 628569-122-R-J1-PDC patient-derived head and neck squamous carcinoma cell line growth inhibition [CLK]
Settings: for viability, T/C: stronger effect = lower value
Text: A high-throughput screen of multi-cell type tumor spheroids was designed to identify active combinations of […] and targeted small molecules. Complex spheroids include a stromal component modeled by human endothelial cells (HUVEC) and fibroblasts modeled by human mesenchymal stem cells (MSCs). The concentration ranges selected for each drug and investigational agent were based upon clinically achievable concentrations if the clinical Cmax of the agent was known.
Compounds. The drugs and investigational agents: cirtuvivint (SM08502; NSC835563), CC-671 (NSC850746), vemurafenib (NSC761431), tapotoclax (NSC804041), sotorasib (NSC818433), adagrasib (NSC831453), MRTX-1133 (NSC836407), BAY2416964 (NSC825713), copanlisib (NSC816437), inavolisib (NSC800729), abemaciclib (NSC768073), osimertinib (NSC779217), entinostat (NSC756642), eltanexor (KPT-8602, NSC794443), venetoclax (NSC766270), ceralasertib (NSC777638), bortezomib (NSC756655), olaparib (NSC753686), talazoparib (NSC767125), alisertib (NSC759677), peposertib (NSC802822), gemcitabine (NSC613327), 5-fluorouracil (NSC19893), SN-38 (NSC673596), oxaliplatin (NSC266046), paclitaxel (NSC125973), and doxorubicin (NSC123127), were obtained from the National Cancer Institute (NCI) Developmental Therapeutics Program Chemical Repository. The FDA-approved anticancer drug set is available from the Developmental Therapeutics Program at https://dtp.cancer.gov/organization/dscb/obtaining/available plates.htm. […] The stock solutions were prepared in dimethyl sulfoxide (DMSO, Sigma-Aldrich, St. Louis, MO, cat. D2650), except for the platinum complexes which were prepared in saline (Quality Biological, Gaithersburg, MD, cat. 114-055-101), at 800-fold the tested concentration and stored at -70 degrees C prior to their use. All drugs and investigational agents were tested over a range starting from a high concentration at or near the clinical Cmax and decreasing in half-log increments. If the clinical Cmax for an agent had not been determined, the highest concentration tested was 10 microM.
Cell Culture. All cells were maintained in an incubator at 37 degrees C and 5% CO2 with 95% humidity. The PDC lines were cultured according to standard operating procedures established by the NCI PDMR. Briefly, all PDCs were thawed and cultured in Matrigel-coated flasks prepared with a working solution of 1X Ham's F-12 nutrient mix, without supplementation (Invitrogen, Waltham, MA, cat. 11765054), 100 U/mL penicillin-streptomycin (Invitrogen, cat. 15140122), and 2.5% Matrigel (Corning Inc., Corning, NY, cat. 354248) for the first three passages. The 947758-054-R-J2-PDC line was cultured in 6B/Colon 1A media, which includes advanced DMEM/F-12 (Thermo Fisher Scientific, cat. 12634028), 10 mM HEPES (Thermo Fisher Scientific, cat. 15630080), 1X GlutaMAX supplement (Thermo Fisher Scientific, cat. 35050061), 0.1 mg/mL primocin (InvivoGen, cat. ant-pm-2), 10% defined fetal bovine serum, heat inactivated (HyClone Laboratories Inc., cat. SH30070.03HI), 1.25 mM N-Acetyl-L-cysteine (Sigma-Aldrich, cat. A9165), 10 mM nicotinamide (Sigma-Aldrich, cat. N0636), 1X B-27 supplement (Thermo Fisher Scientific, cat. 17504044), 1X N-2 supplement (Thermo Fisher Scientific, cat. 17502048), and 10 microM Y-27632 dihydrochloride (Tocris Bioscience, cat. 1254). The 876862-298-R-J1-PDC was cultured in 6E media, which includes all 6B/Colon 1A media components plus 50% L-WRN conditioned media (ATCC, cat. CRL-3276), 50 ng/mL recombinant human EGF recombinant protein (hEGF; Thermo Fisher Scientific, cat. PHG0311), 10 ng/mL recombinant human fibroblast growth factor 10 (hGFG-10; PeproTech, cat. 100-26), 1 ng/mL recombinant human fibroblast growth factor 2 (hFGF-2; PeproTech, cat. 100-18B), and 1 µM prostaglandin E2 (PGE2; Tocris, cat. 2296). The 227483-062-R1-J1-PDC line was cultured in Panc media, containing all 6E components except hFGF-2, with the addition of 500 nM SB-431542 (Selleckchem, cat. S1067) and 10 nM gastrin (Tocris, cat. 3006). […]

[1] = curve of first compound, second compound 0.0316 µM
[2] = curve of first compound, second compound 0.1 µM
[3] = curve of first compound, second compound 0.316 µM
[4] = curve of first compound, second compound 1 µM
[5] = curve of first compound, second compound 3.16 µM
[6] = curve of first compound, second compound 10 µM
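Further: spheroids exposed to agents for seven days before readout.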
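Wherever viability, T/C is given: 100% = DMSO vehicle control viability.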

IC50 (curve of compound): 1350 nM and 1610 nM
SMILES: COc1ccc([C@@H](O)c2cc(-c3ncnc4cc(N5CCOCC5)ccc34)c(F)cc2Cl)nn1
viability, T/C (compound 0.0316 µM): 79.4% and 79.8% | viability, T/C (compound 0.1 µM): 92.1% and 72.9% | viability, T/C (compound 0.316 µM): 69.5% and 75.5% | viability, T/C (compound 1 µM): 51% and 57.1% | viability, T/C (compound 3.16 µM): 41.2% and 39.4% | viability, T/C (compound 10 µM): 21.8% and 31.3%

IC50 [1]: 681 nM | IC50 [2]: 137 nM | IC50 [3]: < 9.49 nM | IC50 [4]: < 9.49 nM | IC50 [5]: < 9.49 nM | IC50 [6]: < 9.49 nM
SMILES: NC(=O)C(=Cn1cnc(-c2cc(C(F)(F)F)cc(C(F)(F)F)c2)n1)c1cncnc1 + CNC(=O)c1ccc(Nc2nc(OC3CCCC3)c3c(-c4ccc5nc(C)oc5c4)c[nH]c3n2)c(OC)c1
viability, T/C (second compound 0.0316 µM, first compound 0.00949 µM): 75.8% | viability, T/C (second compound 0.0316 µM, first compound 0.03 µM): 61.6% | viability, T/C (second compound 0.0316 µM, first compound 0.0949 µM): 69.8% | viability, T/C (second compound 0.0316 µM, first compound 0.3 µM): 52% | viability, T/C (second compound 0.0316 µM, first compound 0.949 µM): 50.8% | viability, T/C (second compound 0.0316 µM, first compound 3 µM): 35.6% | viability, T/C (second compound 0.1 µM, first compound 0.00949 µM): 52.4% | viability, T/C (second compound 0.1 µM, first compound 0.03 µM): 53.9% | viability, T/C (second compound 0.1 µM, first compound 0.0949 µM): 50.5% | viability, T/C (second compound 0.1 µM, first compound 0.3 µM): 47.5% | viability, T/C (second compound 0.1 µM, first compound 0.949 µM): 39.5% | viability, T/C (second compound 0.1 µM, first compound 3 µM): 32.4% | viability, T/C (second compound 0.316 µM, first compound 0.00949 µM): 47.1% | viability, T/C (second compound 0.316 µM, first compound 0.03 µM): 51.7% | viability, T/C (second compound 0.316 µM, first compound 0.0949 µM): 44.1% | viability, T/C (second compound 0.316 µM, first compound 0.3 µM): 42.5% | viability, T/C (second compound 0.316 µM, first compound 0.949 µM): 35.9% | viability, T/C (second compound 0.316 µM, first compound 3 µM): 33.8% | viability, T/C (second compound 1 µM, first compound 0.00949 µM): 40.7% | viability, T/C (second compound 1 µM, first compound 0.03 µM): 45.9% | viability, T/C (second compound 1 µM, first compound 0.0949 µM): 31.9% | viability, T/C (second compound 1 µM, first compound 0.3 µM): 29.5% | viability, T/C (second compound 1 µM, first compound 0.949 µM): 26.2% | viability, T/C (second compound 1 µM, first compound 3 µM): 25.7% | viability, T/C (second compound 3.16 µM, first compound 0.00949 µM): 36.9% | viability, T/C (second compound 3.16 µM, first compound 0.03 µM): 41.2% | viability, T/C (second compound 3.16 µM, first compound 0.0949 µM): 28.7% | viability, T/C (second compound 3.16 µM, first compound 0.3 µM): 25.5% | viability, T/C (second compound 3.16 µM, first compound 0.949 µM): 15.9% | viability, T/C (second compound 3.16 µM, first compound 3 µM): 12.3% | viability, T/C (second compound 10 µM, first compound 0.00949 µM): 38.6% | viability, T/C (second compound 10 µM, first compound 0.03 µM): 33.7% | viability, T/C (second compound 10 µM, first compound 0.0949 µM): 30.7% | viability, T/C (second compound 10 µM, first compound 0.3 µM): 21.4% | viability, T/C (second compound 10 µM, first compound 0.949 µM): 17.7% | viability, T/C (second compound 10 µM, first compound 3 µM): 13.7%

SMILES: COc1cccc2c1C(=O)c1c(O)c3c(c(O)c1C2=O)CC(O)(C(=O)CO)CC3OC1CC(N)C(O)C(C)O1 (stereo unspecified) + CN1CCN(c2cc(C(=O)Nc3cc4cc(-c5cnn(C)c5)ccc4cn3)ccn2)CC1
IC50 [1]: 658 nM | IC50 [2]: 567 nM | IC50 [3]: < 31.6 nM | IC50 [4]: < 31.6 nM | IC50 [5]: < 31.6 nM | IC50 [6]: < 31.6 nM | viability, T/C (second compound 0.0316 µM, first compound 0.0316 µM): 79.8% | viability, T/C (second compound 0.0316 µM, first compound 0.1 µM): 64.6% | viability, T/C (second compound 0.0316 µM, first compound 0.316 µM): 114% | viability, T/C (second compound 0.0316 µM, first compound 1 µM): 29.3% | viability, T/C (second compound 0.0316 µM, first compound 3.16 µM): 9.76% | viability, T/C (second compound 0.0316 µM, first compound 10 µM): 6.19% | viability, T/C (second compound 0.1 µM, first compound 0.0316 µM): 69.3% | viability, T/C (second compound 0.1 µM, first compound 0.1 µM): 85.4% | viability, T/C (second compound 0.1 µM, first compound 0.316 µM): 96.8% | viability, T/C (second compound 0.1 µM, first compound 1 µM): 17.1% | viability, T/C (second compound 0.1 µM, first compound 3.16 µM): 11.4% | viability, T/C (second compound 0.1 µM, first compound 10 µM): 6.38% | viability, T/C (second compound 0.316 µM, first compound 0.0316 µM): 36.8% | viability, T/C (second compound 0.316 µM, first compound 0.1 µM): 58% | viability, T/C (second compound 0.316 µM, first compound 0.316 µM): 15% | viability, T/C (second compound 0.316 µM, first compound 1 µM): 4.91% | viability, T/C (second compound 0.316 µM, first compound 3.16 µM): 9.87% | viability, T/C (second compound 0.316 µM, first compound 10 µM): 7.68% | viability, T/C (second compound 1 µM, first compound 0.0316 µM): 7.46% | viability, T/C (second compound 1 µM, first compound 0.1 µM): 5.6% | viability, T/C (second compound 1 µM, first compound 0.316 µM): 6.96% | viability, T/C (second compound 1 µM, first compound 1 µM): 8.8% | viability, T/C (second compound 1 µM, first compound 3.16 µM): 7.92% | viability, T/C (second compound 1 µM, first compound 10 µM): 4.27% | viability, T/C (second compound 3.16 µM, first compound 0.0316 µM): 10.7% | viability, T/C (second compound 3.16 µM, first compound 0.1 µM): 6.4% | viability, T/C (second compound 3.16 µM, first compound 0.316 µM): 4.58% | viability, T/C (second compound 3.16 µM, first compound 1 µM): 8.38% | viability, T/C (second compound 3.16 µM, first compound 3.16 µM): 7.51% | viability, T/C (second compound 3.16 µM, first compound 10 µM): 3.19% | viability, T/C (second compound 10 µM, first compound 0.0316 µM): 2.99% | viability, T/C (second compound 10 µM, first compound 0.1 µM): 3.91% | viability, T/C (second compound 10 µM, first compound 0.316 µM): 1.4% | viability, T/C (second compound 10 µM, first compound 1 µM): 7.4% | viability, T/C (second compound 10 µM, first compound 3.16 µM): 3.49% | viability, T/C (second compound 10 µM, first compound 10 µM): 0.29%
